Results published in patent US5208344A, “Naphthalenepropionic acid derivatives as anti-inflammatory/antiallergic agents” (American Home Products Corporation, priority 1991, dated 1993).
Where a name gives a salt, the structure may show the parent alone.

Target: T1, 5-lipoxygenase (Homo sapiens, UniProt P09917)
T1 construct: Blood is obtained in 50-100 ml quantities from male donors; endogenous in cells; host or cells: human whole blood (leukocytes) from male donors
T1 sequence (P09917 1-674): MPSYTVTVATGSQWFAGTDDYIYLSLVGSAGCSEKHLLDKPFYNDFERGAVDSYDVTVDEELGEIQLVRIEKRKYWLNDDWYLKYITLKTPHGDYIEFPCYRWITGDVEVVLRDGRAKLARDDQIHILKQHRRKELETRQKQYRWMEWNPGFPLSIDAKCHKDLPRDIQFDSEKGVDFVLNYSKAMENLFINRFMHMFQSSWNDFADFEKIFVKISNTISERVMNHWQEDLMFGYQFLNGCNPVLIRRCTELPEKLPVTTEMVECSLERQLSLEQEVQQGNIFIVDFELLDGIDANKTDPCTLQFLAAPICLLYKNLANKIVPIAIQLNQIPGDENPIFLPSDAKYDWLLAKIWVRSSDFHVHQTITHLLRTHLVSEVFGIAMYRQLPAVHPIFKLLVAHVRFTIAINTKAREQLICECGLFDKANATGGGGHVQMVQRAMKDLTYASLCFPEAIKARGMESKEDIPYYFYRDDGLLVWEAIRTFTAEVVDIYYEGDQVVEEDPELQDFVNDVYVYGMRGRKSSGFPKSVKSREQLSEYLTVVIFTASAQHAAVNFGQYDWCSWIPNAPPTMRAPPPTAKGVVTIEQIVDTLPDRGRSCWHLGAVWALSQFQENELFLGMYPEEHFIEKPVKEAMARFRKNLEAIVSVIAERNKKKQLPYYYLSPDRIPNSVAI
Assay: inhibition of 5-lipoxygenase in human whole blood (LTB4)
Assay type: cell-based
Settings: human whole blood
Summary of the method: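 Donor whole blood preincubated with compound (final 0.1% DMSO) 10 min at 37 °C, then stimulated with 30 μM calcium ionophore A23187 for 20 min at 37 °C; stopped on ice with 10 mM EGTA. Plasma LTB4 measured by RIA or ELISA, expressed per 10^6 neutrophils; IC50 by regression analysis.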

Row | Compound | inhibition at 25 µM (25 μM) [%] | inhibition at 5 µM (5 μM, read-out: % Inhibition of LTB4) [%]
1 | C[C@H](C(=O)O)c1ccc2cc(OCc3ccc4ccccc4n3)ccc2c1 [Example 17, S-(α)-α-Methyl-6-(2-quinolinylmethoxy)-2-naphthaleneacetic acid, tromethanime salt] | 19 | 
2 | C[C@H](C(=O)N(C)O)c1ccc2cc(OCc3ccc4ccccc4n3)ccc2c1 [Example 24, (S)-N-Hydroxy-α-N-dimethyl-6-(2-quinolinylmethoxy)-2-naphthaleneacetamide] |  | 44
